Test results as given in the supplement of paper PMC5752671.

What was measured:
Assay in all cases: area under dose-response curve (cell viability) (AUC (arbitrary, % viability x log concentration)); higher = less sensitive (more viable)
Conditions in all cases: 4 days
MOLM/16 = tested on: MOLM/16
Outline: (§1)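 The value given is the area under a fitted sigmoid dose-response curve. That sigmoid had four parameters and was fitted to duplicate-averaged data from fourteen leukemia cell lines grown on extracellular-matrix-coated 384-well plates. One day after plating, drugs were robotically dosed in duplicate at eight concentrations spanning 4–5 logs between 10^–12 and 10^–4 M, chosen per drug, and viability was read with CellTiter-Glo 4 days later.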

U937 = tested on: U937
Outline: as §1

PL-21 = tested on: PL-21
Outline: as §1

MV4.11 = tested on: MV4.11
Outline: as §1

KG1 = tested on: KG1
Outline: as §1

OCI-AML3 = tested on: OCI-AML3
Outline: as §1

HL60 = tested on: HL60
Outline: as §1

NB4 = tested on: NB4
Outline: as §1

MOLM/13 = tested on: MOLM/13
Outline: as §1

SKM1 = tested on: SKM1
Outline: as §1

Row | Compound | area under dose-response curve (MOLM/16) | area under dose-response curve (U937) | area under dose-response curve (PL-21) | area under dose-response curve (MV4.11) | area under dose-response curve (KG1) | area under dose-response curve (OCI-AML3) | area under dose-response curve (HL60) | area under dose-response curve (NB4) | area under dose-response curve (MOLM/13) | area under dose-response curve (SKM1)
1 | OC[C@H]1O[C@@H](n2cnc3c2N=CNC[C@H]3O)C[C@@H]1O [Pentostatin] | 627 | 651 | 616 | 647 | 669 | 625 | 652 | 666 | 627 | 637
2 | O=C(NOC[C@H](O)CO)c1ccc(F)c(F)c1Nc1ccc(I)cc1F | 350 | 505 | 218 | 344 | 355 | 109 | 209 | 309 | 492 | 83.9
3 | O=c1c(N=Nc2ccc(S(=O)(=O)O)cc2)c(-c2ccc([N+](=O)[O-])cc2)[nH]n1-c1ccccc1 [PHPS1] | 618 | 630 | 611 | 676 | 690 | 622 | 674 | 655 | 627 | 646
4 | O=C1NC(=O)/C(=C\c2ccc3nccnc3c2)S1 | 618 | 648 | 612 | 665 | 666 | 647 | 647 | 605 | 637 | 637
5 | CC(C)C[C@@H](C(=O)N[C@H](C(=O)OC1CCCC1)c1ccccc1)[C@H](O)C(=O)NO [Tosedostat] | 452 | 462 | 520 | 731 | 541 | 650 | 682 | 538 | 625 | 655
6 | Cc1cc(Nc2cc(N3CCN(C)CC3)nc(Sc3ccc(NC(=O)C4CC4)cc3)n2)n[nH]1 [Tozasertib] | 210 | 215 | 453 | 91 | 336 | 370 | 505 | 377 | 79 | 421
7 | Cl[TeH]1(Cl)(Cl)OCCO1.N [AS101] | 561 | 584 | 543 | 582 | 605 | 571 | 703 | 542 | 556 | 605
